Series [1] can be described thus: Lipid and water solubility of click-chemistry candidate compound compared with Example 4. The series is classed as physicochemical. The text has this:
The compound of Example 4, copper sulfate, and a cyclopropyl azide compound (refer to Chemische Berichte (1985), 118(4), 1564-1574; Science of Synthesis (2010), 41, 543-612; Nature (London, United Kingdom) (2019), 574(7776), 86-89) were stirred and reacted at room temperature, and after the reaction was completed, target compounds could be prepared by silica gel column chromatography. Rf: 0.16 (dichloromethane:methanol=10:1).

Series [2] is described as follows: Oral glucose tolerance test (OGTT) after continuous administration in rats for 14 days. The format is in vivo, SD rats. As to conditions: for blood sugar level in OGTT: 0.009 mg/kg oral gavage for 14 days, OGTT on day 15; for loose stools: 0.009 mg/kg oral gavage, within 48 hours before and after the experiment. As for the experimental part: • Experimental animals: SPF male SD rats; • Compound preparation: an appropriate amount of the compounds of Example 1, Example 3, and Example 4 were weighed, and uniformly suspended with an appropriate amount of 0.5% CMC-Na solution; • Preparation of glucose solution: an appropriate amount of glucose powder was weighed and dissolved with an appropriate amount of pure water; • Dosage and method of administration: 0.009 mg/kg, oral gavage.
Experimental process: the animals were fed a normal diet with consecutive administration for 14 days, and the glucose tolerance test was performed on day 15, blood glucose was detected before administration (−30 min), before giving glucose (0 min), and 10, 30, 60, and 120 min after giving glucose solution, and the defecation of animals was observed.

The target in series [3] is T1, SGLT1 (Homo sapiens, UniProt P13866).
T1 sequence (P13866 1-664): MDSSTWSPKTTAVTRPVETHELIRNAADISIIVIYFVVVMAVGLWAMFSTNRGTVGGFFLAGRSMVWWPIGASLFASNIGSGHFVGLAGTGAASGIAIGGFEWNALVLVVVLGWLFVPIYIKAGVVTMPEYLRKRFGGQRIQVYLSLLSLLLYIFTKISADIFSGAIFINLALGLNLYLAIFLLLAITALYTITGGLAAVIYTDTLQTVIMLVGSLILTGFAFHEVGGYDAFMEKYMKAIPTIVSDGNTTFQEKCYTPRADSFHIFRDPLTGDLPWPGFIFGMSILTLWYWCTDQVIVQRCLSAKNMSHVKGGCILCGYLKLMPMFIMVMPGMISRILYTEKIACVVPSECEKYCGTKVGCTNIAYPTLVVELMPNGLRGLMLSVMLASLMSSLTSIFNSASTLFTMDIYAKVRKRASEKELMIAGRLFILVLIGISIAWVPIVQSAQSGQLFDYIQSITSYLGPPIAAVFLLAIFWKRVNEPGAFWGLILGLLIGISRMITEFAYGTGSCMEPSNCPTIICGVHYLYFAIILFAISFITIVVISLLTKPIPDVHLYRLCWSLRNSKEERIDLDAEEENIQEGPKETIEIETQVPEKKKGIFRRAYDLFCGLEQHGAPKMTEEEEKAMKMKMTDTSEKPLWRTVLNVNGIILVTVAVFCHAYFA
As to the kind of experiment: hSGLT1 inhibitor activity experiment 2: 2-NBDG uptake by HEK293 cells stably expressing human SGLT1. The format is cell-based. Particulars: read-out: SGLT1 Inhibitory Activity. More on the design: expressed in transfected cells. As for the experimental part:
Inhibitory activity testing was performed with reference to a similar method described in document [Acta Pharmaceutica Sinica 2017, 52 (6): 897-903; Nature Protocols (2007), 2(3), 753-762; Journal of Biochemical and Biophysical Methods (2005), 64(3), 207-215; Diabetes Technology & Therapeutics (2011), 13(7), 743-775].
In this experiment, the in vitro activity assay was evaluated using the uptake of 2-NBDG (2-Deoxy-2-[(7-nitro-2,1,3-benzoxadiazol-4-yl)amino]-D-glucose, CAS NO: 186689-07-6) by human embryonic kidney epithelial cells (HEK293, stably expressing human SGLT1), and the SGLT1 inhibitory activity of the target compound was determined by measuring its half-maximal inhibitory concentration (IC50).
HEK293 cells that can stably express human SGLT1 gene were inoculated into a 96-well clear-bottom black plate containing DMEM medium. The cells were incubated at 37° C., 5% CO2 in a cell incubator. The medium in the 96-well plate was aspirated, and the plate was treated with low-glucose serum-free DMEM medium, and washed once with non-specific uptake buffer and once with Na^+-dependent uptake buffer. Uptake buffer containing test compound was added to each well of cells, followed by uptake buffer containing 2-NBDG for glucose uptake, and the cell plate was incubated at 37° C., 5% CO2. The compounds were gradiently diluted. The uptake reaction was stopped by removing the culture medium, and after washing the cells with ice-cold uptake buffer, the washing solution was removed. The cells were lysed by adding NaOH, and the content of 2-NBDG in the cells was detected by a fluorescence microplate reader. The protein concentration of the lysate was measured by BCA method, the uptake of 2-NBDG was quantified by fluorescence intensity/protein content, and the obtained data were analyzed using GraphPad Prism to determine the median inhibitory concentration (IC50) of the compound to be tested. […]

Series [4] addresses T1, SGLT1. As to the kind of experiment: SGLT1 inhibitor activity experiment 1. The format is cell-based. The protocol: The inhibitory activity of SGLT1 was tested with reference to the method described in document (Journal of Medicinal Chemistry 2017, 60, 710-721, Discovery of LX2761, a Sodium-Dependent Glucose Cotransporter 1 (SGLT1) Inhibitor Restricted to the Intestinal Lumen, for the Treatment of Diabetes).

The nature of series [5]: Pharmacokinetic study in rats. The series is classed as in vivo, SD rats. As to conditions: 10 mg/kg oral gavage. The protocol:
5. Pharmacokinetic Study in Rats • Experimental animals: SPF male SD rats; • Dosage and method of administration: 10 mg/kg, oral gavage. • Research compound: Dapagliflozin, the compound of Example 4, the compound of Example 6, and the comparative compound 6; • Test method: Before administration (0), and 1, 4, 8, and 24 hours after administration, 0.2 ml of blood was collected from orbital venous plexus, anticoagulated with heparin, and plasma was collected.
Note: The comparative compound 6 is the compound numbered “6” in the document (Journal of Medicinal Chemistry 2017, 60, 710-721, Discovery of LX2761, a Sodium-Dependent Glucose Cotransporter 1 (SGLT1) Inhibitor Restricted to the Intestinal Lumen, for the Treatment of Diabetes). It was prepared and identified according to the synthetic method described in the document.

`CS[C@H]1O[C@@H](c2ccc(C)c(Cc3ccc(CCCC(=O)NC(C)(C)C(=O)NCCN(C)Cc4cn(C5CC5)nn4)cc3)c2)[C@H](O)[C@@H](O)[C@@H]1O`: in series [1], the “lipid solubility compared with Example 4” value is recorded as “better” and the “water solubility compared with Example 4” value was “better”. In the case of `CS[C@H]1O[C@@H](c2ccc(C)c(Cc3ccc(CCCC(=O)NC(C)(C)C(=O)NCCN4CCCC4)cc3)c2)[C@H](O)[C@@H](O)[C@@H]1O` [Example 1], in series [2], the “blood sugar level in OGTT” value is “significantly reduce the blood sugar level of rats” and the loose stools entry is reported as “no loose stools were observed”. The IC50 on SGLT1 [3] is 0.67 nM. For `CS[C@H]1O[C@@H](c2ccc(C)c(Cc3ccc(CCCC(=O)NC(C)(C)C(=O)NCCN4CCN(C)CC4)cc3)c2)[C@H](O)[C@@H](O)[C@@H]1O` [Example 2], the IC50 at SGLT1 [3] is 1.27 nM.

Consider `CS[C@H]1O[C@@H](c2ccc(C)c(Cc3ccc(CCCC(=O)NC(C)(C)C(=O)NCCN(C)Cc4ccccc4)cc3)c2)[C@H](O)[C@@H](O)[C@@H]1O` [Example 3], for which, in series [2], the “blood sugar level in OGTT” value is “significantly reduce the blood sugar level of rats” and the loose stools entry is “no loose stools were observed”. Moreover, at SGLT1 [3], the IC50 was 0.83 nM. With `C#CCN(C)CCNC(=O)C(C)(C)NC(=O)CCOc1ccc(Cc2cc([C@@H]3O[C@H](SC)[C@@H](O)[C@H](O)[C@H]3O)ccc2C)cc1` [Example 5], the IC50 against SGLT1 [4] was below 50 nM.

`C#CCN(C)CCNC(=O)C(C)(C)NC(=O)CCOCc1ccc(Cc2cc([C@@H]3O[C@H](SC)[C@@H](O)[C@H](O)[C@H]3O)ccc2C)cc1` [Example 6]: the IC50 against SGLT1 [4] was below 50 nM. In addition, in series [5], the “drug concentration in plasma” value is given as “did not reach the detection limit”. For the molecule `C#CCN(C)CCNC(=O)C(C)(C)NC(=O)C/C=C/c1ccc(Cc2cc([C@@H]3O[C@H](SC)[C@@H](O)[C@H](O)[C@H]3O)ccc2C)cc1` [Example 7], on SGLT1 [4], the IC50 is below 50 nM. For `C#CCN(C)CCNC(=O)C(C)(C)NC(=O)CCOc1ccc(Cc2cc([C@@H]3O[C@H](SC)[C@@H](O)[C@H](O)[C@H]3O)ccc2C#C)cc1` [Example 8], the IC50 against SGLT1 [4] is below 50 nM.

(Values after patent publication US12612426B2, “Aryl glucoside derivative” (Shanghai Zheye Biotechnology Co. Ltd., priority 2020, dated 2026).)
